Test results published in US4243678A, “Acylhydrocarbylaminoalkanoic acids, compositions and uses” (Byk Gulden Lomberg Chemische Fabrik GmbH, priority 1977, dated 1981).
Read-outs that look alike come from different tables or passages of the source.

Columns and labels:
[1] = Influence on pancreatic secretion of the narcotized rat; format: in vivo, rat (male Sprague-Dawley); conditions: in vivo, LD50 mouse i.p. / ED50 rat i.d.
[2] = test system: pancreatic secretion; assay: as above; format: in vivo, rat (male Sprague-Dawley); conditions: 0.5 h, narcotized rat, i.d., liquid volume
[3] = Determination of toxicity (lethal action on the mouse after intraperitoneal application); format: in vivo; conditions: in vivo, ip
Description: (§1) The toxicity investigations are carried out on female NMRI mice (body weight 22 to 26 g). The animals (5 animals per dose) are given food and water ad lib. Different doses of the substances are administered intraperitoneally. The duration of observation is 14 days. The LD50, i.e. the dose at which 50% of the animals die, is determined graphically from the dose/effect curve.

[4] = test system: mouse; assay: as above; format: in vivo; conditions: 20160 min
Description: as §1

[5] = test system: glucose formation from lactate and pyruvate in isolated perfused liver; assay: Inhibition of the formation of glucose from lactate and pyruvate in the isolated perfused rat liver; parameters: species or system rat (male Sprague-Dawley); conditions: Table XIII
Description: For this purpose young male Sprague-Dawley rats (160 to 200 g) are used. The rats are kept in cages of up to 5 animals in a temperature-controlled room (23° C.) with a fixed day/night rhythm (12/12 hours).
Food is withheld from the animals for from 20 to 22 hours prior to the operation. They are allowed to take water ad lib. The operation and the perfusion of the liver are carried out using the technique of R. Scholz et al. [Eur. J. Biochem. 38 (1973) 64 to 72]. The perfusion liquid used is Krebs-Henseleit bicarbonate buffer (pH 7.4), which is saturated with an oxygen/carbon dioxide mixture (95/5) and contains 1.6 mmol/liter of L-lactate and 0.2 mmol/liter of pyruvate. The perfusion liquid is pumped into the liver via a cannula inserted into the portal vein. The effluent perfusion liquid is collected via a cannula inserted into the Vena cava. The liver is perfused for about 2 hours. The test compounds are infused for 16 minutes each from the 32nd to the […] after the perfusion in increasing concentrations (0.02 to 1.00 mmol/liter).
Samples of the effluent perfusion liquid are collected at one-minute intervals and analyzed for glucose, lactate and pyruvate (using standard enzymatic methods). The percentages shown in Table VIII relate to the condition occurring before and after the administration of the compounds, the changes caused solely by lactate and pyruvate being set as being equal to 100%.

[6] = Influence on bile secretion (choleresis) of the narcotized rat; format: in vivo, rat (male Sprague-Dawley); conditions: in vivo; LD50 mouse i.p. / ED50 rat i.d.; Table II; read-out: TQ (LD50/ED50), bile secretion
From the text: (§2) Male Sprague-Dawley rats (body weight from 250 to 300 g) are narcotized with 1.2 g/kg urethane i.m. Then the abdominal cavity is opened medially, the bile duct is ligatured shortly above the place where it leads into the duodenum and also near to the hepatic duct, and both sections are catheterized towards the liver.
(§3) As in the rat all the pancreatic ducts lead out into the central section of the bile duct; it is possible in this way to discharge the pancreatic secretion separately from the distal (ligatured) section and the bile separately from the proximal section of the bile duct.
(§4) The quantities of pancreatic juice and bile juice obtained are measured at intervals of 30 minutes over a period from 2 hours before to 3 hours after the intraduodenal (V. jugularis externa) administration of the compounds to be tested (quantity of liquid administered 5 ml/kg).
(§5) The body temperature of the animals is maintained at 36° to 38° C. by means of electric blankets and radiation; the temperature is monitored rectally.
(§6) The liquid volumes of the 30-minute fractions after the administration of the substance are related in each case to the quantity of bile or pancreatic juice secreted prior to the application of the substance (=100%, mean of the last two measurements). The maximum percentage increase in the pancreatic or bile secretion is represented in dependence upon dose, and from this the ED50 is determined by interpolation.

[7] = test system: bile secretion; assay: as above; format: in vivo, rat (male Sprague-Dawley); conditions: 0.5 h; narcotized rat, i.d.; liquid volume, 30 min fraction; Table II; read-out: ED50 bile secretion (dose which brings about an increase in the bile secretion by a maximum of 50%)
From the text: as §2, §3, §4, §5, §6

[8] = Antihepatotoxic effect: duration of hexobarbital sleep of the rat after liver damage by CCl4; conditions: rat, in vivo
Description: (§7) The compounds to be tested are administered 1 hour prior to the administration of CCl4 orally in a liquid volume of 10 ml/kg.
(§8) The antihepatotoxic effect of the compounds to be tested (sodium salts in aqueous solution) is determined by the reduction of the prolongation of sleeping period caused by the CCl4 liver cell damage in the groups treated, as compared with the prolongation of the sleeping period of the CCl4 control group (=100%). […]

[9] = test system: liver damage by CCl4; assay: as above; conditions: Rattus norvegicus, po
Description: as §7, §8

[10] = Antiulcerogenic (stomach-protective) action, pylorus ligature and acetylsalicylic acid; format: in vivo, rat (female); conditions: in vivo; LD50 mouse i.p. / ED50 rat i.d.; Table IV; read-out: TQ (LD50/ED50), antiulcerogenic action
Description: (§9) The ulcer provocation is carried out on rats which have been made to fast for 24 hours (female, 180 to 200 g) by ligature of the pylorus (under ether narcosis) and the oral application of 100 mg/10 ml/kg acetylsalicylic acid. The administration of the substances was carried out intraduodenally (2.5 ml/kg) immediately after the ligature of the pylorus. The closure of the wound was carried out by means of Michel clamps. 4 hours after this, the animals were autopsied (while inebriated with ether) by dislocation of the atlas, and the stomach was resected. The stomach, opened longitudinally, is fixed on a cork board and, using a stereomicroscope with an enlargement of 10×, the number and size (=diameter) of any ulcers present were determined. The product of the degree of severity (according to the following scale of points) and the number of ulcers was used as the individual ulcer index.
(§10) As a measure of antiulcerogenic effect the reduction in the mean ulcer index of each treated group, as compared with that of the control group (=100%), was used.

[11] = test system: stomach ulcer; assay: as above; format: in vivo, rat (female); conditions: 4 h; rat, intraduodenally; Table IV; read-out: ED50 antiulcerogenic action (dose which reduces the mean ulcer index by 50%)
Description: as §9, §10

Compound `CC(C)C(=O)N(CCCC(=O)O)C1CCCc2ccccc21` (stereo not drawn) [Serial No. 50, 4-[N-(1,2,3,4-tetrahydro-1-naphthyl)isobutyramido]butyric acid] has a selectivity ratio ([1]; Table X, read-out: TQ LD50/ED50, pancreatic secretion) of no less than 66.7, an ED50 ([2]; 30 minute fraction, Table X, read-out: ED50 pancreatic secretion (dose which brings about an increase in pancreatic secretion by a maximum of 50%)) of roughly 3 mg/kg and an LD50 at 336 h ([3]; mouse i.p., Table X) greater than 200 mg/kg. The “LD50 (i.p.)” value ([4]; mouse, i.p., Table XIII) was greater than 200 mg/kg, the “Glucose formation, % change” value ([5]; 0.2 mmol/liter in the perfusate, isolated perfused liver of fasting rats) was -33% and the “ED50 inhibition of formation of glucose from lactate and pyruvate” value ([5]; from 4 concentrations, 0.02 to 1.00 mmol/liter) was 97 µg/mL.
`C#CC(C)(C)N(CCCC(=O)O)C(=O)c1ccc(Cl)cc1` [Serial No. 3, N-(p-chloro)benzoyl-4-[(2-methyl-3-butyn-2-yl)amino]butyric acid] showed a selectivity ratio [6] greater than 40, an ED50 [7] of 25 mg/kg and a selectivity ratio ([8]; TQ (LD50/ED50), antihepatotoxic effect, LD50 mouse i.p. / ED50 rat p.o., Table III) greater than 10. For the same compound, the ED50 ([9]; read-out: ED50 antihepatotoxic effect (dose which shortens the hexobarbital narcosis by 50%)) was 100 mg/kg, the LD50 at 336 h ([3]; mouse, Table II) was greater than 1000 mg/kg and the LD50 ([4]; mouse, i.p., Table III) was greater than 1000 mg/kg.
Compound `COc1ccc(Cl)cc1C(=O)N(CCCCCC(=O)O)c1ccccc1-c1ccccc1` [Serial No. 30, 6-[5-chloro-2-methoxy-N-(biphenyl-2-yl)benzamido]caproic acid] has a selectivity ratio ([1]; Table VII, read-out: TQ [LD50/ED50], pancreatic secretion) greater than 200, an ED50 ([2]; 30 min fraction, Table VII, read-out: ED50 pancreatic secretion (dose which brings about an increase in pancreatic secretion of a maximum of 50%)) of less than 1 mg/kg and a selectivity ratio ([8]; TQ LD50/ED25, antihepatotoxic effect, LD50 mouse i.p. / ED25 rat p.o., Table V) greater than 20. The ED25 ([9]; read-out: ED25 antihepatotoxic effect (shortens hexobarbital narcosis by 25%)) was 10 mg/kg, the LD50 at 336 h ([3]; mouse, Table IV) was greater than 200 mg/kg and the LD50 ([4]; mouse i.p., Table V) was greater than 200 mg/kg. It also gave an LD50 ([4]; mouse i.p., Table VII) greater than 200 mg/kg, a selectivity ratio [10] greater than 20 and an ED50 [11] of 10 mg/kg.
